Data published in US20030003451A1, “Novel G protein-coupled receptors” (priority 2000, published 2003).
“And” between values parts separate entries of the source, which are not always exact repeats. Identical values can stand only once.

How the values were obtained:
[1] = central injections in rats; cited from earlier work
[2] = injections of the peptide; cited from earlier work
[3] = intracerebroventricular injection; cited from earlier work
[4] = injections into the medial preoptic area of the hypothalamus of rats; cited from earlier work
SLC-1 gene product = conditions: cited from earlier work
[5] = in vivo; cited from earlier work
nGPCR-51 [6] = biological target: T1, nGPCR-51 (Homo sapiens, UniProt Q969V1); test: Aequorin luminescence assay, COS 7 cells co-transfected with nGPCR-51 and mtAequorin; assay type: cell-based; conditions: nGPCR-51 expressing COS 7 cells
T1 construct: expressed in transfected cells
Procedure: Agonist activation of receptors that couple to the Gq subtype of G proteins will lead to the release of intracellular calcium. The photoprotein aequorin emits a characteristic luminescence in the presence of calcium and may be expressed in cells along with the receptor of interest in order to report agonist signalling. Peptide A was tested for the ability to activate nGPCR-51 using an assay for aequorin. Peptide A, a cyclic peptide via a disulfide bond between the Cys residues, has the following amio acid sequence: Asp Phe Asp Met Leu Arg Cys Met Leu Gly Arg Val Tyr Arg Pro Cys Trp Gln Val (SEQ ID NO: 183). Preferably, Peptide A is used in a solution containing 0.17M acetic acid, or the like, and a stabilizer such as a 0.2% BSA:acetonitrile 90:10. […] After the coelenterazine loading incubation, the cells are counted and diluted to 1×10^6 cells/ml in assay buffer. […] The instrument is programmed to dispense 50 μl cell suspension into each well, one well at a time, and immediately read luminescence for 20 seconds. […] Data are analyzed with SlideWrite, using the equation y=a^0*a^1/(x+a^1)+a^2 where a^0 is the maximum response minus the baseline; a^1 is the EC50; and a^2 is the […].

vector-transfected cells = test: Intracellular calcium measurement using FLIPR, empty vector control HEK293 cells; assay type: cell-based, human; conditions: 0.03 pM-10 nM
Procedure: (§1) HEK293 cells were transiently transfected with an expression vector for nGPCR-51 and empty vector using Lipofectamine plus (Gibco) according to the manufacturer's instructions. The next day, the cells were seeded into 96-well plates at 25,000 cells per well. The following day, cells were loaded with 1 uM Fluo-4-acetoxymethyl fluorescent indicator dye (Molecular Probes) in MEM (minimal essential media) containing 0.1% bovine serum albumin, 0.04% pluronic acid and 2.5 mM probenecid for 30 minutes at 37 C. The cells were washed with pre-warmed (37 C.) assay buffer (Hanks buffer containing 15 mM HEPES, 2.5 mM probenecid and 0.1% bovine serum albumin). Assay buffer (100 ul) was added to each well and plates were incubated at 37 C. for 15 minutes. Various concentrations (0.03 pM-10 nM) of human Peptide A or salmon Peptide B were added and fluorescence produced by fluo-4 (a calcium sensitive dye) was measured every second for 150 seconds on a fluorometric imaging plate reader (FLIPR1; Molecular Devices). Human Peptide A and salmon Peptide B-induced calcium mobilization in nGPCR-51-transfected cells with EC50 values of 3 nM and 6 nM, respectively. Human Peptide A and salmon Peptide B had no effect on vector-transfected cells.

[7] = intracerebroventricular injection, rats; cited from earlier work
nGPCR-51 [8] = biological target: T1, nGPCR-51; test: Intracellular calcium measurement using FLIPR, nGPCR-51-transfected HEK293 cells; assay type: cell-based; conditions: fluo-4, FLIPR, read-out: EC50, calcium mobilization
Procedure: as §1

nGPCR-51 [9] = biological target: T1, nGPCR-51; test: NFkB-Luciferase reporter gene assay, nGPCR-51 (Seq51)-transfected N7 (HOS) cells; assay type: cell-based; conditions: 5-hr incubation, 2 separate experiments, read-out: EC50, luciferase expression
Procedure: nGPCR-51 was transfected in N7 cells, stable HOS (human osteosarcoma) cells expressing NFkB-Luciferase reporter gene Briefly, LipofectAMINE, PLUS reagent, and 4 μg DNA were added to cells in Opti-MEM. After 4 hours, serum-containing medium was added to each plate. Twenty-four hour after transfection the cells were trypsinized and seeded in COSTAR white 96-well plate at a cell density of about 20,000 cells per well. Another 24 hours later the culture medium was replaced with fresh growth medium and Peptide A was added. After 5-hr incubation with Peptide A, the medium was aspirated and 100 μL diluted Steady Glo was added. The plates were gently shake at room temperature for 30 minutes and luminescence determined by TopCount at the SPC mode.

Untransfected cells = test: Radioligand binding assay, untransfected cells
nGPCR-51 [10] = biological target: T1, nGPCR-51; test: Radioligand saturation binding assay, membranes of cells transiently expressing nGPCR-51
Procedure: HEK 293 or COS 7 cells transiently expressing nGPCR-51, or CHO K-I cells stable expressing nGPCR-51, were grown to sub-confluence (2 days post-transfection for transients), harvested from flasks in Dulbecco's PBS and pelleted by low speed centrifugation (2500 rpm) for 10 minutes. Cell pellets were homogenized in 10 ml tissue buffer (50 mM Hepes, 10 mM MgCl2, 2 mM EGTA, 1 μg/ml aprotinin, 1 μg/ml leupeptin hemisulfate, 1 μg/ml pepstatin A, pH 7.0) using a dounce, 10 strokes. Homogenate was centrifuged at 47,000× g for 15 minutes. Membrane pellet was resuspended in 1 ml tissue buffer using the dounce, 10 strokes. An aliquot of the membrane preparation was used to determine protein concentration. For measurement of saturation binding, 10 μg of cell membranes were incubated with various concentrations of [^125I] Peptide A (iodinated by routine procedures via the Tyr residue) in 300 μl binding assay buffer (tissue buffer plus 0.15 mM Bacitracin and 0.1% ovalbumin) for 90 minutes at room temperature in 96-well plates. Non-specific binding was defined by the inclusion of 1 μM Peptide A. After the binding incubation, plates were harvested onto GF/C filters presoaked in 0.3% non-fat dry milk. […] Filter plates were then counted in a Packard Topcount™ 96-well microplate scintillation counter. Data were analyzed using GraphPad Prism (San Diego, Calif.) and Kd and Bmax values were calculated.

T1 sequence (Q969V1 whole entry): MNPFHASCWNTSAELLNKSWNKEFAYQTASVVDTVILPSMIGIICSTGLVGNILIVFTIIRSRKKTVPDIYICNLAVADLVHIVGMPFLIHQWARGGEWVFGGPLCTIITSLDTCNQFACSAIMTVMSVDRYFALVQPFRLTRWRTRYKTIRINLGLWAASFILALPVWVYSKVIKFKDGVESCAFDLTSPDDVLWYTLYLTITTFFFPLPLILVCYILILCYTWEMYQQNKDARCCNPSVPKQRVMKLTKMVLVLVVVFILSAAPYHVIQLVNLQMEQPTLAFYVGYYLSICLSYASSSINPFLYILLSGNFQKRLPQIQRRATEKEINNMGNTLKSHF

SMILES | peak circadian ACTH levels [1] | stress-induced ACTH secretion [1] | female sexual receptivity [2] | conditioning amplitude of the second of a pair of auditory evoked potentials recorded from the hippocampus [3] | effect on increases in the conditioning amplitude induced by alpha MSH [3] | time spent in open arms, elevated plus maze [4] | activation of SLC-1 G-protein coupled receptor (SLC-1 gene product) | passive avoidance performance [5] | EC50 (nGPCR-51 [6]) [nM] | maximum response, aequorin luminescence (nGPCR-51 [6]) [fold over baseline] | effect on calcium mobilization in vector-transfected cells (vector-transfected cells) | food intake [7] | EC50 (nGPCR-51 [8]) [nM] | EC50 (nGPCR-51 [9]) | specific radioligand binding (Untransfected cells) | Bmax (nGPCR-51 [10]; COS 7 cells transiently expressing nGPCR-51) [finol/mg] | estimated Bmax (nGPCR-51 [10]; HEK 293 cells transiently expressing nGPCR-51) [fmol/mg]
CSCC[C@@H]1NC(=O)[C@@H](NC(=O)[C@H](CCCNC(=N)N)NC(=O)[C@H](CC(C)C)NC(=O)[C@H](CCSC)NC(=O)[C@H](CC(=O)O)NC(=O)[C@H](Cc2ccccc2)NC(=O)[C@@H](N)CC(=O)O)CSSC[C@@H](C(=O)N[C@@H](Cc2c[nH]c3ccccc23)C(=O)N[C@@H](CCC(N)=O)C(=O)N[C@H](C(=O)O)C(C)C)NC(=O)[C@@H]2CCCN2C(=O)[C@H](CCCNC(=N)N)NC(=O)[C@H](Cc2ccc(O)cc2)NC(=O)[C@H](C(C)C)NC(=O)[C@H](CCCNC(=N)N)NC(=O)CNC(=O)[C@H](CC(C)C)NC1=O [Peptide A, Asp Phe Asp Met Leu Arg Cys Met Leu Gly Arg Val Tyr Arg Pro Cys Trp Gln Val] | reduction in peak circadian ACTH levels | inhibit stress-induced ACTH secretion | stimulated female sexual receptivity | decrease in the conditioning amplitude | reverses the increases in the conditioning amplitude | decreases in time spent in open arms | potently activated | alter passive avoidance performance | ~40 | 52 | no effect | increase in food intake | 3 | 1.6 nM and 1.7 nM | – | – | –
CSCC[C@@H]1NC(=O)[C@@H](NC(=O)[C@H](CCCNC(=N)N)NC(=O)[C@H](CC(C)C)NC(=O)[C@H](CCSC)NC(=O)[C@H](CC(=O)O)NC(=O)[C@H](Cc2ccccc2)NC(=O)[C@@H](N)CC(=O)O)CSSC[C@@H](C(=O)N[C@@H](Cc2c[nH]c3ccccc23)C(=O)N[C@@H](CCC(N)=O)C(=O)N[C@H](C(=O)O)C(C)C)NC(=O)[C@@H]2CCCN2C(=O)[C@H](CCCNC(=N)N)NC(=O)[C@H](Cc2ccc(O)c(I)c2)NC(=O)[C@H](C(C)C)NC(=O)[C@H](CCCNC(=N)N)NC(=O)CNC(=O)[C@H](CC(C)C)NC1=O [[^125I] Peptide A] | – | – | – | – | – | – | – | – | – | – | – | – | – | – | no specific radioligand binding | 75 | ~108
